The subject of the data set is CCRIS mutagenicity, Ames/micronucleus/aberration tests. Nature of the data set: CCRIS mutagenicity studies.
The mark [1] stands for this setting: Test System: AMES SALMONELLA TYPHIMURIUM, Strain/Indicator: TA98, Metabolic Activation: NONE, Method: STANDARD PLATE.
The mark [2] stands for this setting: Test System: AMES SALMONELLA TYPHIMURIUM, Strain/Indicator: TA98, Metabolic Activation: RAT, LIVER, S-9, AROCLOR 1254, Method: STANDARD PLATE.
The mark [3] stands for this setting: Test System: AMES SALMONELLA TYPHIMURIUM, Strain/Indicator: TA100, Metabolic Activation: NONE, Method: STANDARD PLATE.
Where [4] appears, read: Test System: AMES SALMONELLA TYPHIMURIUM, Strain/Indicator: TA100, Metabolic Activation: RAT, LIVER, S-9, AROCLOR 1254, Method: STANDARD PLATE.
Setting [5] is: Test System: AMES SALMONELLA TYPHIMURIUM, Strain/Indicator: TA98, Metabolic Activation: RAT, LIVER, S-9, KANECHLOR 500, Method: PREINCUBATION
The mark [6] stands for this setting: Test System: AMES SALMONELLA TYPHIMURIUM, Strain/Indicator: TA100, Metabolic Activation: RAT, LIVER, S-9, KANECHLOR 500, Method: PREINCUBATION

For ten molecules, mutagenic call results are on record in PubChem BioAssay AID1259407 (Chemical Carcinogenesis Research Information System (CCRIS), 2018).

The source made the active and inactive calls. No rule for the calls is given here.

On to `O=[N+]([O-])c1ccc2c3cccc4cccc(c5c([N+](=O)[O-])ccc1c25)c43`, for which the mutagenic call was “active; positive” (Test System: AMES SALMONELLA TYPHIMURIUM, Strain/Indicator: TA98(1,8-DNP6), Metabolic Activation: NONE, Method: STANDARD PLATE); “active; positive” (Test System: AMES SALMONELLA TYPHIMURIUM, Strain/Indicator: TA98(NR), Metabolic Activation: NONE, Method: STANDARD PLATE); “active; positive” under setting [1]; “active; positive” (Test System: AMES SALMONELLA TYPHIMURIUM, Strain/Indicator: TA98, Metabolic Activation: NONE, Method: STANDARD PLATE (ANAEROBIC)); “active; positive” under setting [2]; “inactive; negative” under setting [3]. Also, under setting [4], the mutagenic call is “active; positive”.
Consider `COc1ccccc1NC(=O)C(N=Nc1ccc(-c2ccc(N=NC(C(C)=O)C(=O)Nc3ccccc3OC)c(Cl)c2)cc1Cl)C(C)=O` (stereo not drawn), for which the mutagenic call (Test System: AMES SALMONELLA TYPHIMURIUM, Strain/Indicator: TA98, Metabolic Activation: HAMSTER, LIVER, S-9, Method: PREINCUBATION (PRIVAL METHOD)) was “inactive; negative”.
`O[C@@H]1C=Cc2c(ccc3cc4c(ccc5ccccc54)cc23)[C@H]1O`: under setting [4], the mutagenic call is “active; positive”.
In the case of `c1ccc2c(c1)CC[C@H]1CCC[C@@H]3O[C@]213`, the mutagenic call reads like this: under setting [1], “inactive; negative”; under setting [3], “inactive; negative”.
Consider `COc1cccc([N+](=O)[O-])c1`, for which the mutagenic call is, setting by setting: (Test System: AMES SALMONELLA TYPHIMURIUM, Strain/Indicator: TA98, Metabolic Activation: NONE, Method: PREINCUBATION) “inactive; negative”; under setting [5], “inactive; negative”; (Test System: AMES SALMONELLA TYPHIMURIUM, Strain/Indicator: TA98, Method: PREINCUBATION) “inactive; negative”; (Test System: AMES SALMONELLA TYPHIMURIUM, Strain/Indicator: TA100, Metabolic Activation: NONE, Method: PREINCUBATION) “inactive; negative”; under setting [6], “inactive; negative”; (Test System: AMES SALMONELLA TYPHIMURIUM, Strain/Indicator: TA100, Method: PREINCUBATION) “inactive; negative”. Moreover, the mutagenic call was “inactive; negative” (Test System: AMES SALMONELLA TYPHIMURIUM, Strain/Indicator: TA1535, Metabolic Activation: NONE, Method: PREINCUBATION); “inactive; negative” (Test System: AMES SALMONELLA TYPHIMURIUM, Strain/Indicator: TA1535, Method: PREINCUBATION); “inactive; negative” (Test System: AMES SALMONELLA TYPHIMURIUM, Strain/Indicator: TA1537, Metabolic Activation: NONE, Method: PREINCUBATION); “inactive; negative” (Test System: AMES SALMONELLA TYPHIMURIUM, Strain/Indicator: TA1537, Method: PREINCUBATION); “inactive; negative” (Test System: AMES SALMONELLA TYPHIMURIUM, Strain/Indicator: TA1538, Metabolic Activation: NONE, Method: PREINCUBATION); “inactive; negative” (Test System: AMES SALMONELLA TYPHIMURIUM, Strain/Indicator: TA1538, Method: PREINCUBATION).
With `C[C@@H]1C[C@@H]2c3cccc4[nH]cc(c34)C[C@H]2N(C)C1`, under setting [4], the mutagenic call was “active; positive”.
For the molecule `O=C(O)c1ccc([N+](=O)[O-])cc1[N+](=O)[O-]`, the mutagenic call (End Point: In vitro chromosomal aberrations, Test System: V79 Chinese hamster fibroblasts, Metabolic Activation: None) was “active; positive (structural changes)”; the mutagenic call (End Point: In vitro micronucleus, Test System: HepG2 human hepatoma cells, Metabolic Activation: None) was “active; positive”; the mutagenic call (Test System: AMES SALMONELLA TYPHIMURIUM, Strain/Indicator: TA98, Metabolic Activation: RAT, LIVER, S-9, AROCLOR, Method: PREINCUBATION) was “active; positive”; the mutagenic call under setting [5] is “inactive; negative”; the mutagenic call under setting [6] is “inactive; negative”; the mutagenic call (Test System: Ames Salmonella typhimurium, Strain/Indicator: TA98, Metabolic Activation: None, Method: Standard plate) is “active; positive”. The mutagenic call is, setting by setting: (Test System: Ames Salmonella typhimurium, Strain/Indicator: TA98, Metabolic Activation: Rat, Liver, S-9, Method: Standard plate) “active; positive”; (Test System: Ames Salmonella typhimurium, Strain/Indicator: TA98NR, Metabolic Activation: None, Method: Standard plate) “active; positive, ta98nr is the nitroreductase-deficient derivative of ta98”; (Test System: Ames Salmonella typhimurium, Strain/Indicator: TA100, Metabolic Activation: None, Method: Standard plate) “inactive; negative”; (Test System: Ames Salmonella typhimurium, Strain/Indicator: TA100, Metabolic Activation: Rat, Liver, S-9, Method: Standard plate) “inactive; negative”.
As for `CN(C)CCCNc1c2ccccc2nc2c(N(C)C)ccc([N+](=O)[O-])c12`, the mutagenic call under setting [1] is “active; positive” and the mutagenic call under setting [3] is “active; positive”.
As to `COc1cc(N)c(C)cc1N`, the mutagenic call runs as follows: under setting [1], “inactive; negative”; under setting [2], “inactive; negative”; under setting [3], “inactive; negative”; under setting [4], “inactive; negative”; (Test System: AMES SALMONELLA TYPHIMURIUM, Strain/Indicator: TA1535, Metabolic Activation: NONE, Method: STANDARD PLATE) “inactive; negative”; (Test System: AMES SALMONELLA TYPHIMURIUM, Strain/Indicator: TA1535, Metabolic Activation: RAT, LIVER, S-9, AROCLOR 1254, Method: STANDARD PLATE) “inactive; negative”. Further, the mutagenic call (Test System: AMES SALMONELLA TYPHIMURIUM, Strain/Indicator: TA1537, Metabolic Activation: NONE, Method: STANDARD PLATE) was “inactive; negative”; the mutagenic call (Test System: AMES SALMONELLA TYPHIMURIUM, Strain/Indicator: TA1537, Metabolic Activation: RAT, LIVER, S-9, AROCLOR 1254, Method: STANDARD PLATE) was “inactive; negative”; the mutagenic call (Test System: AMES SALMONELLA TYPHIMURIUM, Strain/Indicator: TA1538, Metabolic Activation: NONE, Method: STANDARD PLATE) is “inactive; negative”; the mutagenic call (Test System: AMES SALMONELLA TYPHIMURIUM, Strain/Indicator: TA1538, Metabolic Activation: RAT, LIVER, S-9, AROCLOR 1254, Method: STANDARD PLATE) was “inactive; negative”.
`Nc1ccccc1O`: the mutagenic call (Test System: AMES SALMONELLA TYPHIMURIUM, Strain/Indicator: TA98, Metabolic Activation: NONE) is “inactive; negative” and the mutagenic call (Test System: AMES SALMONELLA TYPHIMURIUM, Strain/Indicator: TA98, Metabolic Activation: S-9) is “inactive; negative”.
